Test results: US8697747B2, “Enhancing coagulation or reducing fibrinolysis” (THe UAB Research Foundation, priority 2009, dated 2014)

Tested on: pooled normal plasma
Test: Thrombelastography/CLSM in pooled normal plasma (INR 1.0) with or without tPA
Type: biochemical, human
Procedure: Pooled normal plasma (George King Bio-Medical, Overland Park, Kans.) anticoagulated with sodium citrate was utilized for experimentation. […] Plasma anticoagulated with sodium citrate procured from anonymous donors treated with warfarin was also obtained from the same vendor.
Plasma sample composition of experiments without tPA addition. The final volume for all subsequently described plasma sample mixtures was 359.6 μL. Sample composition consisted of 326 μL of plasma, 10 μL of tissue factor reagent (0.1% final concentration in dH2O; Instrumentation Laboratory, Lexington, Mass.), 3.6 μL of dimethyl sulfoxide (DMSO) or DMSO with CORM-2 (100 μM final concentration; Sigma-Aldrich, St. Louis, Mo.), and 20 μL of 200 mM CaCl2. Tissue factor stock was kept on ice prior to use and was remade every two hours. […] DMSO was added to dry CORM-2 just prior to placement into the plasma mixture. Six replicate experiments were performed with pooled normal plasma with or without CORM-2 added, whereas plasma obtained from subjects treated with warfarin underwent singlicate experiments with or without CORM-2 exposure.
Plasma sample composition of experiments with tPA addition. As in the series of experiments without tPA addition, the final volume of plasma sample mixtures was 359.6 μL. Sample composition consisted of 316 μL of plasma; 10 μL of tissue factor reagent (0.1% final concentration); 3.6 μL of DMSO without or with CORM-2 (100 μM final concentration); 10 μL of tPA diluted with 10 mM potassium phosphate buffer (pH 7.4) for a final activity of 100 IU/mL; and 20 μL of 200 mM CaCl2. As with tissue factor reagent, tPA stock was kept on ice prior to use and was remade every two hours. Six replicate experiments were performed with pooled normal plasma with or without CORM-2 added, whereas plasma obtained from subjects treated with warfarin underwent singlicate experiments with or without CORM-2 exposure.
Clot Lifespan Model Analyses. Plasma sample mixtures were placed in a disposable cup in a computer-controlled THROMBELASTOGRAPH® hemostasis system (Model 5000, Haemoscope Corp., Niles, Ill.), with addition of CaCl2 as the last step to initiate clotting. In the first series of experiments, no tPA was added and data were collected until clot strength (maximum amplitude) was stable. In the second series of experiments in which tPA was added, data were collected until clot lysis time occurred. […] The nomenclature used to describe these phenomena is as follows: Time to maximum rate of thrombus generation (TMRTG): This is the time interval (sec) observed prior to maximum speed of clot growth. Maximum rate of thrombus generation (MRTG): This is the maximum velocity of clot growth observed (dynes/cm^2/sec). Total Thrombus Generation (TTG): This is the total area under the velocity curve during clot growth (dynes/cm^2), representing the amount of clot strength generated during clot growth. Time to maximum rate of lysis (TMRL): This is the time interval (sec) measured from the time of maximum strength to the time when the velocity of clot disintegration is maximal. Maximum Rate of Lysis (MRL): This is the maximum velocity of clot disintegration observed (—dynes/cm^2/sec). Area of Clot Lysis (ACL): This is the total area under the velocity curve during clot disintegration (−dynes/cm^2), representing the amount of clot strength lost during clot disintegration.

[1] = no tPA, 100 μM CORM-2, mean ± SD, n=6
[2] = tPA 100 U/ml, 100 μM CORM-2, mean ± SD, n=6
[3] = tPA 100 U/ml, 100 μM vs 0 μM CORM-2

## [C-]#[O+].[C-]#[O+].[C-]#[O+].[C-]#[O+].[C-]#[O+].[C-]#[O+].[Cl][Ru][Cl].[Cl][Ru][Cl] [CORM-2, tricarbonyldichlororuthenium (II) dimer]
[1]
  MRTG (maximum rate of thrombus generation): 15.0 ± 2.4 dynes/cm^2/sec
  TMRTG (time to maximum rate of thrombus generation): 2.26 ± 0.03 min
  TTG (total thrombus generation): 285 ± 38 dynes/cm^2
No tPA, 100 μM vs 0 μM CORM-2
  Percent Change of MRTG: 102%
  Percent Change of TMRTG: −5%
  Percent Change of TTG: 70%
[2]
  CGT (clot growth time): 7.00 ± 0.94 min
  CLS (clot lifespan): 39.07 ± 2.82 min
  CLT (clot lysis time): 32.07 ± 3.15 min
  MRL (maximum rate of lysis): −2.4 ± 0.5 −dynes/cm^2/sec
  MRTG (maximum rate of thrombus generation): 15.2 ± 1.3 dynes/cm^2/sec
  TMRL (time to maximum rate of lysis): 22.92 ± 1.93 min
  TMRTG (time to maximum rate of thrombus generation): 2.14 ± 0.05 min
  TTG (total thrombus generation): 284 ± 27 dynes/cm^2
[3]
  Percent Change of CGT: 58%
  Percent Change of CLS: 91%
  Percent Change of CLT: 100%
  Percent Change of MRL: 68%
  Percent Change of MRTG: 97%
  Percent Change of TMRL: 103%
  Percent Change of TMRTG: −2%
  Percent Change of TTG: 106%
